Literature values in US8796195B2 (priority 2007, dated 2014).
Values joined by “and” are separate entries in the source; they are usually repeats but may differ in a detail not shown here. Equal values may be shown once.

Legend:
[1] = based on 48% tetrafluoroboric acid

Row | SMILES | pKa | LD50 (toxic by ingestion) [1]
1 | F [HF, hydrofluoric acid] | 3.4 and ~3.5 | –
2 | F[B-](F)(F)F.[H+] [Tetrafluoroboric acid, tetrafluoroboric acid] | approximately −3 | 100 to 464 mg/kg
